From patent publication US11247976B2, “Synthetic ligands that modulate the activity of the RhlR quorum sensing receptor” (Wisconsin Alumni Research Foundation, priority 2016, dated 2022)
“Also recorded” adds a separate entry of the source. Marks after values point to notes of the source that are not given here.

Target: T1, RhlR (Pseudomonas aeruginosa, UniProt P54292)
T1 construct: expressed in transfected cells; host or cells: E. coli JLD271 (ΔsdiA) with pJN105R2 (arabinose-induced) and pSC11-rhlI*
Assay: P. aeruginosa RhlR reporter agonism assay (PAO-JP2/prhlI-LVAgfp)
Type: cell-based
Conditions: not given

T1 sequence (P54292 whole entry): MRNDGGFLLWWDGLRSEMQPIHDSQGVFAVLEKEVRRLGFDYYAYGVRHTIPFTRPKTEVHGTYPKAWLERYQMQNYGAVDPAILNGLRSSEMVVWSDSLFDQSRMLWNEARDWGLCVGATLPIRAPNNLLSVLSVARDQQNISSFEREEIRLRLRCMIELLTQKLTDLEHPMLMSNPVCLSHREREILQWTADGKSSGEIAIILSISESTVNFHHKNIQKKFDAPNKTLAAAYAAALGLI

Point of comparison: `O=C(N[C@H]1CCOC1=O)C1CCC1` [Compound J24, cyclobutanoyl AHL], EC50 1410 nM. Against it:
- CC(C)CC(=O)N[C@H]1CCOC1=O [Compound J18, isovaleryl HL] — within 1.5-fold, 1420 nM
- CCCC(=O)N[C@H]1CCSC1=O [RN8] — 10-fold higher, 14300 nM
- O=C(N[C@H]1CCSC1=O)C1CCC1 [RN15] — within 1.5-fold, 1650 nM

Same assay, conditions: read-out: Maximum Activation (%)

Point of comparison: `O=C(N[C@H]1CCOC1=O)C1CCC1` [Compound J24, cyclobutanoyl AHL], Emax 95%. Against it:
- CC(C)CC(=O)N[C@H]1CCOC1=O [Compound J18, isovaleryl HL] — lower, 94%
- CCCC(=O)N[C@H]1CCSC1=O [RN8] — lower, 94%
- O=C(N[C@H]1CCSC1=O)C1CCC1 [RN15] — lower, 90%

Target: T1, RhlR
Assay: E. coli RhlR reporter agonism assay (JLD271/pJN105R2/pSC11-rhlI*)
Type: cell-based, P. aeruginosa
Conditions: not given
Method: (§1) All media and reagents for bacterial culture were purchased from commercial sources. Bacteria were cultured in Luria-Bertani broth (LB) at 37° C. with shaking at 200 rpm unless otherwise noted. The bacterial reporter strains used for this study were (i) the heterologous E. coli strain JLD271 (ΔsdiA) harboring the RhlR expression plasmid pJN105R2 and the rhlI-lacZ transcriptional fusion reporter pSC11-rhlI*, (ii) the heterologous E. coli strain JLD271 (ΔsdiA) harboring the LasR expression plasmid pJN105L and the […] transcriptional fusion reporter pSC11, and (iii) the P. aeruginosa strain PAO-JP2 (ΔlasrhlI) harboring the rhlI-gfp transcriptional fusion reporter prhlI-LVAgfp. Reporter strains JLD271/pJN105R2/pSC11-rhlI* and JLD271/pJN105L/pSC11 were grown in LB containing 100 μg/mL ampicillin and 10 μg/mL gentamicin. Freezer stocks of bacterial strains were maintained at −80° C. in 1:1 LB:50% glycerol.
(§2) To evaluate the modulatory activities of library compounds on RhlR and LasR using E. coli reporters, the strains JLD271/pJN105R2/pSC11-rhlI* and JLD271/pJN105L/pSC11 were used, respectively, as previously described.^38, 51 The following modifications were used in the RhlR agonism reporter assay, non-native compounds (10 μM or 1 mM) were compared to 1 mM BHL as the positive control. Briefly, a subculture was prepared by diluting an overnight culture 1:10 with fresh media containing 100 μg/mL ampicillin and 10 μg/mL gentamicin, and was incubated until it had grown to OD600=0.45. In all assays, L-arabinose was added to a final concentration of 4 mg/mL to induce RhlR expression. For RhlR agonism assays, activities of test compounds were measured relative to 1 mM BHL (the concentration required to induce a maximal level of RhlR activity). For RhlR antagonism assays, test compounds were competed against a concentration of BHL approximately equal to its EC50 value (10 μM). Activity was measured relative to 10 μM BHL. Inhibition was calculated by subtracting 100% from the relative activity value. Thus, 0% inhibition mimics represents no competitive displacement of 10 μM BHL by a test compound. In all assays, modifications were made to the standard Miller assay protocol to accommodate the use of the chlorophenol red-β-D-galactopyranoside (CPRG) β-galactosidase substrate. After cell lysis, 150 μL of the aqueous layer was transferred from each well of a solvent-resistant 96-well microtiter plate to the wells of a new clear, flat-bottom 96-well microtiter plate. CPRG (4 mg/mL in phosphate-buffered saline) was added to each well in 25 μL volumes. Plates were incubated at 30° C. until the positive control wells developed a red color (approximately 30 min). The amount of processed CPRG substrate was assessed by measuring the absorbance of each well at 570 nm. Enzymatic activity was calculated using the following equation: adjusted Miller units=1000·Abs570/(OD600·t·V),
(§3) where t is the incubation time of substrate with lysate and V is the volume of culture lysed.
Because LuxR-type receptors are often unstable in solution, preventing the use of in vitro assays to directly assess small molecule agonism and antagonism, reporter gene assays represent a standard method for screening small-molecule libraries for LuxR-type receptor modulation. Previously reported strains for this purpose were used in the current study.^38 Synthetic N-butanoyl L-homoserine lactone (BHL), the native ligand of RhlR, was used as the positive control for receptor activation. Commonly, agonists are measured relative to maximum possible receptor activation within a particular assay medium;^40 because the dose-response curve of BHL is distinctly shallow in these RhlR reporters, a high concentration of BHL is required to maximally activate RhlR. In this study, activation of compounds was measured relative to that elicited by 1 mM BHL (the concentration of BHL used causes no aberrant growth effects in the reporter strain). […]

Point of comparison: `O=C(N[C@H]1CCOC1=O)C1CCC1` [Compound J24, cyclobutanoyl AHL], EC50 1780 nM. Against it:
- CC(C)CC(=O)N[C@H]1CCOC1=O [Compound J18, isovaleryl HL] — 1.7-fold lower, 1020 nM
- CCCC(=O)N[C@H]1CCSC1=O [RN8] — 2.7-fold higher, 4870 nM
- O=C(N[C@H]1CCSC1=O)C1CCC1 [RN15] — within 1.5-fold, 1720 nM

Same assay, conditions: E. coli reporter, EC50 vs BHL

`CC(C)CC(=O)N[C@H]1CCOC1=O` [Compound J18, isovaleryl HL] was tested, and the “fold more potent than the native ligand” value was ~10 fold.

Same assay, conditions: compound at 10 μM; RhlR activity relative to 1 mM BHL; E. coli reporter

Point of comparison: `CC(C)CC(=O)N[C@H]1CCOC1=O` [Compound J18, isovaleryl HL], activation at 10 µM 86%. Against it:
- O=C(N[C@H]1CCOC1=O)C1CCC1 [Compound J24, cyclobutanoyl AHL] — lower, 79%
- CCCC(=O)N[C@H]1CCSC1=O [RN8] — lower, 71%

Same assay, conditions: dose-response, E. coli reporter

In the case of `O=C(N[C@H]1CCOC1=O)C1CCC1` [Compound J24, cyclobutanoyl AHL], the “RhlR agonist potency in words” value is reported as “significantly more potent than BHL; also recorded: rivaled in potency that of S4”.
With `CC(C)CC(=O)N[C@H]1CCOC1=O` [Compound J18, isovaleryl HL] the “RhlR agonist potency in words” value was “significantly more potent than BHL”.
In the case of `O=C(N[C@H]1CCSC1=O)C1CCC1` [RN15], the “RhlR agonist potency in words” value is reported as “equipotent to the cyclobutanoic tail group parent, compound J24”.

Same assay, conditions: read-out: Maximum Activation (%)

Point of comparison: `O=C(N[C@H]1CCOC1=O)C1CCC1` [Compound J24, cyclobutanoyl AHL], Emax 100%. Against it:
- CC(C)CC(=O)N[C@H]1CCOC1=O [Compound J18, isovaleryl HL] — higher, 105%
- CCCC(=O)N[C@H]1CCSC1=O [RN8] — higher, 102%
- O=C(N[C@H]1CCSC1=O)C1CCC1 [RN15] — higher, 106%

Same assay, conditions: single-concentration screen at 10 μM, E. coli reporter

With `O=C(N[C@H]1CCOC1=O)C1CCC1` [Compound J24, cyclobutanoyl AHL] the “RhlR agonist activity in words” value was “strong”.
For `CC(C)CC(=O)N[C@H]1CCOC1=O` [Compound J18, isovaleryl HL], the “RhlR agonist activity in words” value was “comparable RhlR activation to that of BHL”.

Target: T2, LasR (Pseudomonas aeruginosa, UniProt P25084)
T2 construct: expressed in transfected cells; host or cells: E. coli JLD271 (ΔsdiA) with pJN105L and pSC11
Assay: Selectivity of RhlR agonism over LasR agonism (E. coli LasR reporter JLD271/pJN105L/pSC11)
Type: cell-based, P. aeruginosa
Conditions: tested concentration 1 mM; RhlR % activity divided by LasR % activity; > = negligible activity in LasR reporter
Method: as §1, §2
LasR assays were processed using the protocol for the substrate ortho-nitrophenyl-β-galactoside (ONPG) as previously described elsewhere.^53; and LasR antagonism assays were performed versus the EC50 for OdDHL (2 nM).
The selectivity of certain compounds for RhlR over LasR was measured using a LasR reporter strain (details above). Table 6 provides a comparison of selectivity of RhlR agonism over LasR agonism for exemplary compounds. Table 7 provides a comparison of selectivity of RhlR antagonism over LasR antagonism for exemplary compounds.

T2 sequence (P25084 whole entry): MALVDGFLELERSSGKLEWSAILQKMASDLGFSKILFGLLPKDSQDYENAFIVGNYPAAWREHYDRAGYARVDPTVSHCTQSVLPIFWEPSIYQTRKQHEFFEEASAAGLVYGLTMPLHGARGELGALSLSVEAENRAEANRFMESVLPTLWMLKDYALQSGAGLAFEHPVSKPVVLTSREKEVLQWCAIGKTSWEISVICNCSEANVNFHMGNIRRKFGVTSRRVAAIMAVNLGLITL

Point of comparison: `O=C(N[C@H]1CCOC1=O)C1CCC1` [Compound J24, cyclobutanoyl AHL], “Fold selectivity of RhlR agonists over LasR agonism” value (“Fold selectivity of RhlR agonists” for short) 48 fold. Against it:
- CCCC(=O)N[C@H]1CCSC1=O [RN8] — lower, 4.5 fold
- O=C(N[C@H]1CCSC1=O)C1CCC1 [RN15] — lower, 11 fold

`CC(C)CC(=O)N[C@H]1CCOC1=O` [Compound J18, isovaleryl HL] was tested, and the “Fold selectivity of RhlR agonists” value was >99^b fold.

Same assay, conditions: tested concentration 10 μm; RhlR % activity divided by LasR % activity; > = negligible activity in LasR reporter

With `O=C(N[C@H]1CCOC1=O)C1CCC1` [Compound J24, cyclobutanoyl AHL] the “Fold selectivity of RhlR agonists” value was >79^b fold.
In the case of `CC(C)CC(=O)N[C@H]1CCOC1=O` [Compound J18, isovaleryl HL], the “Fold selectivity of RhlR agonists” value is reported as 255^ fold.
With `O=C(N[C@H]1CCSC1=O)C1CCC1` [RN15] the “Fold selectivity of RhlR agonists” value was >88^b fold.

In the case of `CCCC(=O)N[C@H]1CCSC1=O` [RN8], the “Fold selectivity of RhlR agonists” value is reported as 17 fold.

Target: T1, RhlR
Assay: E. coli RhlR reporter antagonism assay vs 10 μM BHL (JLD271/pJN105R2/pSC11-rhlI*)
Type: cell-based, P. aeruginosa
Conditions: read-out: % inhibition (10 μM), compound at 10 μM in the presence of 10 μM BHL; negative = agonism stronger than 10 μM BHL alone
Method: as §1
as §2, with “For RhlR antagonism assays, test compounds were competed against a concentration of BHL approximately equal to its EC50 value (10 μM).” left out
as §3
The RhlR-modulatory activity of the J library compounds was assessed in a heterologous reporter strain (E. coli JLD271 harboring plasmids pJN105R2 and pSC11-rhlI*) in order to isolate the RhlR receptor from upstream QS regulation (e.g. regulation by LasR). Thus, the extent to which compounds were directly modulating RhlR could be determined. These assays were performed by incubating compound-treated, mid-log phase E. coli reporter cells in 96-well microtiter plates, followed by Miller assay evaluation of ß-galactosidase activity.
RhlR agonism and antagonism screens of each compound were performed initially at 10 μM.

Point of comparison: `CC(C)CC(=O)N[C@H]1CCOC1=O` [Compound J18, isovaleryl HL], inhibition at 10 µM -62%. Against it:
- O=C(N[C@H]1CCOC1=O)C1CCC1 [Compound J24, cyclobutanoyl AHL] — lower, -66%
- CCCC(=O)N[C@H]1CCSC1=O [RN8] — higher, -8%
- O=C(N[C@H]1CCSC1=O)C1CCC1 [RN15] — lower, -85%

Same assay, conditions: read-out: % inhibition (1 mM), compound at 1 mM in the presence of 10 μM BHL; negative = agonism stronger than 10 μM BHL alone

Point of comparison: `O=C(N[C@H]1CCSC1=O)C1CCC1` [RN15], inhibition at 1000 µM -114%. Against it:
- O=C(N[C@H]1CCOC1=O)C1CCC1 [Compound J24, cyclobutanoyl AHL] — higher, -110%
- CC(C)CC(=O)N[C@H]1CCOC1=O [Compound J18, isovaleryl HL] — lower, -123%
- CCCC(=O)N[C@H]1CCSC1=O [RN8] — higher, -75%
